Source: patent US12065442B2, “Tropomyosin receptor kinase (TRK) degradation compounds and methods of use” (Cullgen (Shanghai), Inc., priority 2018, dated 2024)
“Also recorded” adds a separate entry of the source. Read-outs that look alike come from different tables or passages of the source.

What was measured:
wild type TRKA protein = target: T1, wild type TRKA protein (Homo sapiens, UniProt P04629); assay: Immunoblotting of wild type TRKA protein in HEL cells; type: cell-based; conditions: for TRKA protein levels: dose range (FIG. 8B)
T1 construct: immunoblot of wild type TRKA protein expressed by HEL cells; endogenous in cells; host or cells: HEL cells
Protocol: (§1) KM12 or HEL cells were treated with a dose range of compound TR-123 or TR-123-negative. The latter lost binding to cereblon (CRBN) due to a chemical modification.
KM12 or HEL cells were treated with a single dose of compound TR-123 or combination with MG-132, Bortezomib, MLN4924 or Pomalidomide.
(§2) Cultured cells were washed with cold PBS once and lysed in cold RIPA buffer supplemented with protease inhibitors and phosphatase inhibitors (Beyotime Biotechnology). The solutions were then incubated at 4° C. for 30 minutes with gentle agitation to fully lyse cells. For tumor tissues, tumors were cut into small pieces, milled with cold RIPA buffer using a mechanical homogenizer and lysed for 1 hour at 4° C. Cell lysates were centrifuged at 13,000 rpm for 10 minutes at 4° C. and pellets were discarded. Total protein concentrations in the lysates were determined by BCA assays (Beyotime Biotechnology). Cell lysates were mixed with Laemmli loading buffer to 1× and heated at 99° C. for 5 min. Proteins were resolved on SDS-PAGE and visualized by chemiluminescence. Images were taken by a ChemiDoc MP Imaging system (Bio-Rad). Protein bands were quantitated using the software provided by Bio-Rad.

TPM3-TRKA fusion protein [1] = target: T2, TPM3-TRKA fusion protein (Homo sapiens, UniProt P04629+P06753+Q96SW2); assay: Immunoblotting of TPM3-TRKA fusion protein in KM12 cells; type: cell-based; design: The resulted chimeric proteins always retain the kinase domain of TRK proteins; TPM3 (N-terminal fusion partner, natural gene fusion); endogenous in cells; host or cells: KM12 colon cancer cells; conditions: for TRKA protein levels: dose range (FIG. 8A)
Protocol: Specific exemplary bivalent compounds were characterized in KM12 cells. […] Cells were collected, lysed and subject to immunoblotting using an antibody specific to TRK proteins. GAPDH was included as the loading control. DMSO was used as the negative control.
KM12 cells were treated with DMSO or indicated compounds at 100 nM for 16 hours.
KM12 cells were treated with CPD-027, CPD-053, and CPD-060 at 100 nM for indicated incubation time. […]
as §1
KM12 or HEL cells were treated with a single dose of compound TR-123 or combination with MG-132, Bortezomib, MLN4924 or Pomalidomide. […]
as §2

KM12 cells = assay: Cell viability assay (CellTiter-Glo) in KM12 cells; type: cell-based; conditions: Homo sapiens, 72 h, KM12 cell viability, CellTiter-Glo, 3 days, read-out: IC50
TPM3-TRKA fusion protein [2] = target: T2, TPM3-TRKA fusion protein; assay: Immunoblotting of TPM3-TRKA in KM12 subcutaneous xenograft tumors; type: in vivo, Athymic nude mice; design: The resulted chimeric proteins always retain the kinase domain of TRK proteins; TPM3 (N-terminal fusion partner, natural gene fusion); from tissue; host or cells: KM12 subcutaneous xenograft tumors in athymic nude mice; conditions: for TPM3-TRKA degradation in KM12 subcutaneous tumors: intraperitoneal or oral administration, eight hours after administration (FIG. 10)
Protocol: In addition to cultured cells, athymic nude mice bearing KM12 subcutaneous xenograft tumors at the right flank were intraperitoneally treated with 10, 20, or 50 mg/kg CPD-053, CPD-027, or CPD-060. Four hours after drug administration, animals were sacrificed for immunoblotting of TPM3-TPKA in homogenized xenograft tumor masses. The label “a” or “b” represents two different samples of the same xenograft tumor.
Athymic nude mice bearing KM12 subcutaneous xenograft tumors at the right flank were intraperitoneally treated with 10, 20, or 50 mg/kg CPD-053, CPD-027, or CPD-060, as indicated in FIG. 3. Four hours after drug administration, animals were sacrificed for immunoblotting of TPM3-TPKA in homogenized xenograft tumor chunks. The label “a” or “b” represents two different chunks of the same xenograft tumor.
Athymic nude mice bearing KM12 subcutaneous xenograft tumors at the right flank were intraperitoneally or orally treated with bivalent compounds at indicated dose. Eight hours after drug administration, animals were sacrificed for immunoblotting of TPM3-TPKA in homogenized xenograft tumor samples.
as §2
All animal experiments were performed under protocols approved by the Institutional Animal Care and Use Committee (IACUC) of Cullgen. Athymic nude mice (male, 5-weeks old) received 5 million KM12 cells subcutaneously inoculated at the right flank site. Ten days following inoculation, tumors were approximately 500 mm3 in size. Tumor-bearing mice were treated intraperitoneally with vehicle or bivalent compounds at indicated doses. Tumor sizes and body weight of mice were measured every 2 days. In addition, immunoblotting assays were employed to assess the levels of TRKA fusion proteins in xenograft tumors around 500 mm^3 in size following drug administration. At indicated hours after drug administration, selected mice were sacrificed, tumors were resected. Small chunks of tumors were homogenized for immunoblotting of TPM3-TPKA and other proteins as indicated.

[3] = Mouse pharmacokinetic (PK) studies; type: in vivo; conditions: single 20 mg/kg intraperitoneal injection, mice, over 12 hours (FIG. 11); 20 mg/kg
Protocol: To investigate the pharmacokinetics of bi-functional compounds, exemplified by TR-123, a single 20 mg/kg intraperitoneal injection was evaluated. […] Additionally, doses of 2 mg/kg TR-198 via intravenous injection and 20 mg/kg TR-198 via oral gavage were evaluated in mice.
A single 20 mg/kg intraperitoneal injection of compound TR-123 was evaluated. Plasma concentrations of TR-123 reported at each of the 6 time points (30 min, 1 h, 2 h, 4 h, 8 h, and 12 h post compound administration) are the average values from 3 test animals.
A single 2 mg/kg intravenous injection and 20 mg/kg oral gavage of TR-198 were evaluated in mice.
Plasma concentrations of TR-198 reported at each of the 6 time points (5 min, 30 min, 2 h, 4 h, 8 h, and 12 h post compound administration via IV, 30 min, 1 h, 2 h, 4 h, 8 h, and 12 h post compound administration via p.o.) are the average values from 3 test animals.
Standard PK studies were conducted using male Swiss Albino mice by Sai Life Sciences. A single 20 mg/kg intraperitoneal (IP) injection of compound TR-123 was evaluated. Plasma concentrations of TR-123 reported at each of the 6 time points (30 min, 1 h, 2 h, 4 h, 8 h, and 12 h post dosing) are the average values from 3 test animals. Error bars represent+SD.

T1 sequence (P04629 33-796): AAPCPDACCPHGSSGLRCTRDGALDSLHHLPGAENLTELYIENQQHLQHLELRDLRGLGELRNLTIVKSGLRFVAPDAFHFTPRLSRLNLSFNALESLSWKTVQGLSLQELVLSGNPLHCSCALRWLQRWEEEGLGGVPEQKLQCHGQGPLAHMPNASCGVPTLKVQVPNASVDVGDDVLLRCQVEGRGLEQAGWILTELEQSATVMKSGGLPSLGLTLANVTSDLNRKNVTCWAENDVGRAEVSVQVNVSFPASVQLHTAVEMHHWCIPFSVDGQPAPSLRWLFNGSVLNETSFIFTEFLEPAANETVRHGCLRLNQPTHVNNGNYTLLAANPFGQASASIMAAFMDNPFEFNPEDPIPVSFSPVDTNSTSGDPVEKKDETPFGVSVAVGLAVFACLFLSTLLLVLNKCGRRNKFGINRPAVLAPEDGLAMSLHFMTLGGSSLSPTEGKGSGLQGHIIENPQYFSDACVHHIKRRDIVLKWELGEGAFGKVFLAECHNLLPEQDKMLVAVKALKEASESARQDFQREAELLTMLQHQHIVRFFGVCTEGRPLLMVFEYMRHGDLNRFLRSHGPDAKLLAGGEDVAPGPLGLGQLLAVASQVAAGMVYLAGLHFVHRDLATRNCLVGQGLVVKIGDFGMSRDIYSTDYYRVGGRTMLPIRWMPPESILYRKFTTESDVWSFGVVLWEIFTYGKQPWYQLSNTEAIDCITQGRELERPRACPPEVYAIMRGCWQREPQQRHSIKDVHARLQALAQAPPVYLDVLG
T2 sequence (P06753+P04629 fused): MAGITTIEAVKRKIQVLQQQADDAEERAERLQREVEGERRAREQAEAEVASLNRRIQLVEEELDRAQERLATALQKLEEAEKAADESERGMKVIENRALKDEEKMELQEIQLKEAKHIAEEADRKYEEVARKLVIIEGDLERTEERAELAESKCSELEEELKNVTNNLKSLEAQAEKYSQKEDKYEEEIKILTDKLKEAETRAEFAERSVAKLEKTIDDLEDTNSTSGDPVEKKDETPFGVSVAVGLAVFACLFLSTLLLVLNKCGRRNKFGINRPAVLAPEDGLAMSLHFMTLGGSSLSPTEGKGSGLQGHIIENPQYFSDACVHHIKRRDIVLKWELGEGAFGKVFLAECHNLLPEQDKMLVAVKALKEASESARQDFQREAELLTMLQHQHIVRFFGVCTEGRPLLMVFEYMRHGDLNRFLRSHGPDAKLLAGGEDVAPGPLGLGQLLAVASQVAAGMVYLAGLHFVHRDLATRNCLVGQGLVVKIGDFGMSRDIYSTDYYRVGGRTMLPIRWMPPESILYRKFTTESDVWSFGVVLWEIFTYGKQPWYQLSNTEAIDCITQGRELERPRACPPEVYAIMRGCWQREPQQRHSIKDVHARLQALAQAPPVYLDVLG
T2 sequence (Q96SW2 whole entry, the tested form may be a part): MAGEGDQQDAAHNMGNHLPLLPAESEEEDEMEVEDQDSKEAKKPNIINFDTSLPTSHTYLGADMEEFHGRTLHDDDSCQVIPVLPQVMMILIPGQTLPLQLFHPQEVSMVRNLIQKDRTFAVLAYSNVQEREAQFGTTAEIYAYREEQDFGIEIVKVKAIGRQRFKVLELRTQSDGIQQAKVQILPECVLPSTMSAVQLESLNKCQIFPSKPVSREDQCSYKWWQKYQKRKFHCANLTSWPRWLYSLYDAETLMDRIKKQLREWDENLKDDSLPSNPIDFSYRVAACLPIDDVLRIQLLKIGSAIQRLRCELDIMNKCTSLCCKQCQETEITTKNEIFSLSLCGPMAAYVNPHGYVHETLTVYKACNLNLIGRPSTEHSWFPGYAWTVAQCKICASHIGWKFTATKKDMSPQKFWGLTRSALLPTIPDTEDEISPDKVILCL
T2 sequence (Q16531 whole entry partner, the tested form may be a part): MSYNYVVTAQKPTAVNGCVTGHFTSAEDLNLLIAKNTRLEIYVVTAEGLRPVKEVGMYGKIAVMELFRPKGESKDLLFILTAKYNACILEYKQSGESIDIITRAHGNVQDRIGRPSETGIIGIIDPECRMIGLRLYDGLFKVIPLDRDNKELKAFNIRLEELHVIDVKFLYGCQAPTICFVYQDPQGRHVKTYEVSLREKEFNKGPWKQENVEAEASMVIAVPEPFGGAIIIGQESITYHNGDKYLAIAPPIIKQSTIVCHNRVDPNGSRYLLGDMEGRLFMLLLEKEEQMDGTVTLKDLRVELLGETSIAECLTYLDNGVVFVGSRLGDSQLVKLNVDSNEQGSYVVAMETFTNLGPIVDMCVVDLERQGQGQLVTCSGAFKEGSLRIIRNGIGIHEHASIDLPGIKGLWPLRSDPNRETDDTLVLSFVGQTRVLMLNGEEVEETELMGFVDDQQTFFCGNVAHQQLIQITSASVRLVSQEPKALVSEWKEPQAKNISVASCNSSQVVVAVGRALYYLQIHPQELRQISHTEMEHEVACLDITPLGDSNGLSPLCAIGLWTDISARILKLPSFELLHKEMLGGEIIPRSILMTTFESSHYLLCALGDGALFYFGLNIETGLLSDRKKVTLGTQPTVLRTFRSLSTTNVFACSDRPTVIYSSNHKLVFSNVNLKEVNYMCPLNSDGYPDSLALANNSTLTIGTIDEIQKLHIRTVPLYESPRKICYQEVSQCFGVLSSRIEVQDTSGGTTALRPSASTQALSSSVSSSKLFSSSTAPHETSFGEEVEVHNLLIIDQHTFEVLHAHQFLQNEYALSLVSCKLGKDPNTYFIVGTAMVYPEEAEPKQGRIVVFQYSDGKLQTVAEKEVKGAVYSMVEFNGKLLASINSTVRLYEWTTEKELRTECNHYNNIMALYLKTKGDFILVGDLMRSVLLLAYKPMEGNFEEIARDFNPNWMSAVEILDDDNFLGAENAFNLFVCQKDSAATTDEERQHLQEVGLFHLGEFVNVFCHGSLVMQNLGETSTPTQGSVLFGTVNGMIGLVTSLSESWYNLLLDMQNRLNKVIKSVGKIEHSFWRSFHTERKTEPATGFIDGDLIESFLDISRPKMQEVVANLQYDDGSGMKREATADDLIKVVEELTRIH

CN1C(=O)CCC(N2C(=O)c3ccc(NCC(=O)N4CCN(c5cccc(-c6cnc7ccc(N8CCC[C@@H]8c8cccc(F)c8)nn67)n5)CC4)cc3C2=O)C1=O (stereo partly drawn) [TR-123-negative, 5-((2-(4-(6-(6-((R)-2-(3-Fluorophenyl)pyrrolidin-1-yl)imidazo[1,2-b]pyridazin-3-yl)pyridin-2-yl)piperazin-1-yl)-2-oxoethyl)amino)-2-(1-methyl-2,6-dioxopiperidin-3-yl)isoindoline-1,3-dione]
TRKA protein levels (wild type TRKA protein): none or less effects on TRKA protein levels | TRKA protein levels (TPM3-TRKA fusion protein [1]): none or less effects on TRKA protein levels

O=C1CCC(N2C(=O)c3ccc(NCCCN4CCN(c5cccc(-c6cnc7ccc(N8CCC[C@@H]8c8cccc(F)c8)nn67)n5)CC4)cc3C2=O)C(=O)N1 (stereo partly drawn) [TR-171, 2-(2,6-Dioxopiperidin-3-yl)-5-((3-(4-(6-(6-((R)-2-(3-fluorophenyl)pyrrolidin-1-yl)imidazo[1,2-b]pyridazin-3-yl)pyridin-2-yl)piperazin-1-yl)propyl)amino)isoindoline-1,3-dione]
IC50 (KM12 cells; Table 3): 5.2 nM | TPM3-TRKA degradation in KM12 subcutaneous tumors (TPM3-TRKA fusion protein [2]): exhibited the activities to induce TPM3-TRKA degradation

O=C1CCC(N2C(=O)c3ccc(OCCN4CCN(c5cccc(-c6cnc7ccc(N8CCC[C@@H]8c8cccc(F)c8)nn67)n5)CC4)cc3C2=O)C(=O)N1 (stereo partly drawn) [TR-173, 2-(2,6-dioxopiperidin-3-yl)-5-(2-(4-(6-(6-((R)-2-(3-fluorophenyl)pyrrolidin-1-yl)imidazo[1,2-b]pyridazin-3-yl)pyridin-2-yl)piperazin-1-yl)ethoxy)isoindoline-1,3-dione]
IC50 (KM12 cells; Table 3): 8.9 nM | TPM3-TRKA degradation in KM12 subcutaneous tumors (TPM3-TRKA fusion protein [2]): exhibited the activities to induce TPM3-TRKA degradation

O=C1CCC(N2C(=O)c3ccc(NCC(=O)N4CCN(c5cccc(-c6cnc7ccc(N8CCC[C@@H]8c8cccc(F)c8)nn67)n5)CC4)cc3C2=O)C(=O)N1 (stereo partly drawn) [TR-123, 2-(2,6-dioxopiperidin-3-yl)-5-((2-(4-(6-(6-((R)-2-(3-fluorophenyl)pyrrolidin-1-yl)imidazo[1,2-b]pyridazin-3-yl)pyridin-2-yl)piperazin-1-yl)-2-oxoethyl)amino)isoindoline-1,3-dione]
IC50 (KM12 cells; Table 3): 1.7 nM | TRKA protein levels (wild type TRKA protein): reduced TRKA protein levels in a concentration-dependent manner; also recorded: significant degradation of full-length TRKA | TRKA degradation in combination with MG-132, Bortezomib, MLN4924 or Pomalidomide (wild type TRKA protein; single dose (FIG. 9B)): compromised | plasma exposure [3]: significant plasma exposure | TRKA protein levels (TPM3-TRKA fusion protein [1]): reduced TRKA protein levels in a concentration-dependent manner | TRKA degradation in combination with MG-132, Bortezomib or MLN4924 (TPM3-TRKA fusion protein [1]; single dose (FIG. 9A)): compromised | TPM3-TRKA degradation in KM12 subcutaneous tumors (TPM3-TRKA fusion protein [2]): exhibited the activities to induce TPM3-TRKA degradation

O=C1CCC(N2C(=O)c3ccc(NCC(=O)N4CCN(c5cccc(-c6cnc7ccc(N8CCC[C@@H]8c8cccc(F)c8)nn67)n5)CC4)cc3C2=O)C(=O)N1 (some centres unmarked) [TR123]
plasma exposure [3]: good plasma exposure

O=C1CCC(N2C(=O)c3cccc(NCCOCCC(=O)N4CCN(c5cccc(-c6cnc7ccc(N8CCC[C@@H]8c8cccc(F)c8)nn67)n5)CC4)c3C2=O)C(=O)N1 (stereo partly drawn) [CPD-027, 2-(2,6-Dioxopiperidin-3-yl)-4-((2-(3-(4-(6-(6-((R)-2-(3-fluorophenyl)pyrrolidin-1-yl)imidazo[1,2-b]pyridazin-3-yl)pyridin-2-yl)piperazin-1-yl)-3-oxopropoxy)ethyl)amino)isoindoline-1,3-dione]
IC50 (KM12 cells; Table 2): 4.9 nM | time after adding compound at which significant degradation of TPM3-TRKA was detected (TPM3-TRKA fusion protein [1]; 100 nM (FIG. 2)): 15 min | TPM3-TRKA protein levels (TPM3-TRKA fusion protein [1]; 100 nM, 16 hours (FIG. 1A-1C)): particularly effective in reducing TPM3-TRKA protein levels | TPM3-TRKA protein levels, time course (TPM3-TRKA fusion protein [1]; 100 nM, indicated incubation time (FIG. 2)): rapidly reduced TPM3-TRKA protein levels | TPM3-TRKA protein levels in KM12 subcutaneous xenograft tumors (TPM3-TRKA fusion protein [2]; 10, 20, or 50 mg/kg intraperitoneally, single dose, four hours after administration (FIG. 3)): significantly reducing TPM3-TRKA protein levels

O=C1CCC(N2C(=O)c3ccc(CCCN4CCN(c5cccc(-c6cnc7ccc(N8CCC[C@@H]8c8cccc(F)c8)nn67)n5)CC4)cc3C2=O)C(=O)N1 (stereo partly drawn) [TR-172, 2-(2,6-dioxopiperidin-3-yl)-5-(3-(4-(6-(6-((R)-2-(3-fluorophenyl)pyrrolidin-1-yl)imidazo[1,2-b]pyridazin-3-yl)pyridin-2-yl)piperazin-1-yl)propyl)isoindoline-1,3-dione]
IC50 (KM12 cells; Table 3): 2 nM | TPM3-TRKA degradation in KM12 subcutaneous tumors (TPM3-TRKA fusion protein [2]): exhibited the activities to induce TPM3-TRKA degradation

O=C1CCC(N2C(=O)c3ccc(NCCOCCOCCN4CCN(c5cccc(-c6cnc7ccc(N8CCC[C@H]8c8cccc(F)c8)nn67)n5)CC4)cc3C2=O)C(=O)N1 (stereo partly drawn) [TR-177, 2-(2,6-Dioxopiperidin-3-yl)-5-((2-(2-(2-(4-(6-(6-((S)-2-(3-fluorophenyl)pyrrolidin-1-yl)imidazo[1,2-b]pyridazin-3-yl)pyridin-2-yl)piperazin-1-yl)ethoxy)ethoxy)ethyl)amino)isoindoline-1,3-dione]
IC50 (KM12 cells; Table 3): 1.9 nM | TPM3-TRKA degradation in KM12 subcutaneous tumors (TPM3-TRKA fusion protein [2]): exhibited the activities to induce TPM3-TRKA degradation
